Publication doi:10.1101/525105v1 (biorxiv, 2019)

Legend:
in vitro [1] = conditions: human, tzm-bl cells
HIV-1IIIB = test: microbe, parasite or virus in culture; set-up: species or system LC5-RIC; conditions: Human immunodeficiency virus 1, 48 h, read-out: IC50 HIV-1IIIB
in vitro [2] = conditions: human, lc5-ric cells
AMV RNase H = test: RNase H assay; assay type: biochemical, Avian myeloblastosis virus; conditions: conditions not printed for this enzyme
E. coli RNase H = molecular target: T1, E. coli RNase H (Escherichia coli, UniProt P0A7Y4); test: RNase H assay; assay type: biochemical
T1 sequence (P0A7Y4 1-155): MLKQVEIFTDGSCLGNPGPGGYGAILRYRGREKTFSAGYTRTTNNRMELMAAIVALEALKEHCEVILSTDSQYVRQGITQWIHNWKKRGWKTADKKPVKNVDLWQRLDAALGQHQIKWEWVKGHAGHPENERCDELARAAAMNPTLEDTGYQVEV

[3] = molecular target: HIV-1 integrase (XpressBio kit) (HIV-1 M:B_HXB2R, UniProt P04585); test: HIV-1 integrase assay kit; assay type: biochemical
[4] = molecular target: HIV-1 RT (Roche colorimetric reverse transcriptase assay kit) (HIV-1 M:B_HXB2R, UniProt P04585); test: colorimetric RT polymerase assay; assay type: biochemical

Row | SMILES | CC50 (in vitro [1]) [µM] | IC50 (HIV-1IIIB) [µM] | CC50 at 48 h (in vitro [2]) [µM] | IC50 (AMV RNase H) [µM] | IC50 (E. coli RNase H) [µM] | IC50 [3] [µM] | IC50 [4] [µM]
1 | CCN(CC)OC(=O)c1ccc2ccccc2c1-c1cccc2cccnc12 [B#60, 2-[(Diethylamino)oxycarbonyl]-1-(quinol-8-yl)naphthalene] | 69.3 ± 4.9 | 50.1 ± 3.7 | 71.4 ± 2.8 |  |  |  | 
2 | CC(C)Oc1ccc2ccccc2c1-c1cccc2cccnc12 [B#59, 2-(Isopropyloxy)-1-(quinol-8-yl)naphthalene] | > 100 | 39.5 ± 1.7 | 144 ± 7.7 |  |  |  | 
3 | CC(C)Oc1ccc2cccnc2c1-c1cccc2ccccc12 [B#24, 7-(Isopropyloxy)-8-(naphth-1-yl)quinoline] | 68.5 ± 17.1 | 7.6 ± 0.2 | 86.5 ± 3.7 | > 100 | 44.3 ± 6.4 | > 100 | > 100
4 | CCN(CC)C(=O)Oc1ccc2cccnc2c1-c1cccc2cccnc12 [B#58, 7-[(Diethylamino)carbonyloxy]-8,8'-biquinolyl] | > 200 | > 200 |  |  |  |  | 
5 | CC(C)Oc1ccc2cccnc2c1-c1cccc2cccnc12 [B#57, 7-(Isopropyloxy)-8,8′-biquinolyl] | > 200 | > 200 | > 200 | > 100 | > 100 | > 100 | > 100
6 | Cc1cc(/C=C/C#N)cc(C)c1Nc1ccnc(Nc2ccc(C#N)cc2)n1 [rilpivirine, reference compound] |  |  |  | > 10 | > 10 |  | ~0.001
